Each compound was assayed against human NK-3 receptor (Homo sapiens (Human), UniProt P29371) (assay: 3H-SB222200 binding competition assay with human NK-3 receptor). Conditions: 3H-SB222200 displacement, CHO cell membranes expressing human NK3 receptor; read-out: Ki range.
How it was run: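 Radioligand displacement: 5 nM tritiated SB222200 competed by varying compound concentrations on recombinant CHO membranes bearing human NK3, buffer pH 7.4 with HEPES, NaCl, CaCl2, MgCl2, BSA and saponin. Filter-bound radioactivity quantified; calculated Ki given as ranges from +++ (<500 nM) to # (>5 μM).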

Sequence of human NK-3 receptor (P29371 whole entry): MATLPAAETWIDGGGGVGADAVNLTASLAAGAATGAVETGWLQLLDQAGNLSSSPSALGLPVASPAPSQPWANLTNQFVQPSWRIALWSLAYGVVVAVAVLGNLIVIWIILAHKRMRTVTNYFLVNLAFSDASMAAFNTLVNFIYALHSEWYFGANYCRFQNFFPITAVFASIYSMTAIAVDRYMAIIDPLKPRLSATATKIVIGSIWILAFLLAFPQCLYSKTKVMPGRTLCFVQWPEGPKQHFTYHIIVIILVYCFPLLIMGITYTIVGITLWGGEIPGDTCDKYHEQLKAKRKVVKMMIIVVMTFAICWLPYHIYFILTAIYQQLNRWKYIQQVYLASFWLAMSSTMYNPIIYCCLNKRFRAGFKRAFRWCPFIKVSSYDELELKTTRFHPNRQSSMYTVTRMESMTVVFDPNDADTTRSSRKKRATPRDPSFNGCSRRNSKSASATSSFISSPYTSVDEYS

| SMILES | Ki [nM] |
| --- | --- |
| C[C@@H]1c2nnc(-c3csc(N4CCOCC4)n3)n2CCN1C(=O)c1ccc(-c2ccc(F)cc2)cc1 [Compound 134, (R)-(4′-fluoro-[1,1′-biphenyl]-4-yl)(8-methyl-3-(2-morpholinothiazol-4-yl)-5,6-dihydro-[1,2,4]triazolo[4,3-a]pyrazin-7(8H)-yl)methanone] | < 500 |
| O=C(c1ccc(F)cc1)N1CCn2c(nnc2-c2ccc3ccccc3n2)C1 [Compound 7, (4-fluorophenyl)(3-(quinolin-2-yl)-5,6-dihydro-[1,2,4]triazolo[4,3-a]pyrazin-7(8H)-yl)methanone] | < 500 |
| Cn1nc(-c2nnc3n2CCN(C(=O)c2ccc(F)cc2)C3)cc1-c1ccccc1 [Compound 238, (4-fluorophenyl)(3-(1-methyl-5-phenyl-1H-pyrazol-3-yl)-5,6-dihydro-[1,2,4]triazolo[4,3-a]pyrazin-7(8H)-yl)methanone] | < 500 |
| Cc1ccc(-c2nc(-c3nnc4n3CCN(C(=O)c3ccc(-c5cccs5)cc3)C4)cs2)cc1 [Compound 191, (4-(thiophen-2-yl)phenyl)(3-(2-(p-tolyl)thiazol-4-yl)-5,6-dihydro-[1,2,4]triazolo[4,3-a]pyrazin-7(8H)-yl)methanone] | > 5000 |
| C[C@@H]1c2nnc(-c3coc(-c4ccccc4)n3)n2CCN1C(=O)c1ccc(-c2ccccc2)cc1 [Compound 131, (R)-[1,1′-biphenyl]-4-yl(8-methyl-3-(2-phenyloxazol-4-yl)-5,6-dihydro-[1,2,4]triazolo[4,3-a]pyrazin-7(8H)-yl)methanone] | < 500 |
| O=C(c1ccc(-c2cccs2)cc1)N1CCn2c(nnc2-c2nc(-c3ccc(F)cc3F)no2)C1 [Compound 185, (3-(3-(2,4-difluorophenyl)-1,2,4-oxadiazol-5-yl)-5,6-dihydro-[1,2,4]triazolo[4,3-a]pyrazin-7(8H)-yl)(4-(thiophen-2-yl)phenyl)methanone] | > 5000 |
| C[C@H]1c2nnc(-c3csc(-c4ccc(F)cc4F)n3)n2CCN1C(=O)c1ccc(-c2cccs2)cc1 [Compound 165, (S)-(3-(2-(2,4-difluorophenyl)thiazol-4-yl)-8-methyl-5,6-dihydro-[1,2,4]triazolo[4,3-a]pyrazin-7(8H)-yl)(4-(thiophen-2-yl)phenyl)methanone] | < 500 |
| C[C@@H]1c2nnc(-c3csc(-c4ccccc4)n3)n2CCN1C(=O)c1ccc(-c2cccs2)cc1 [Compound 135, (R)-(8-methyl-3-(2-phenylthiazol-4-yl)-5,6-dihydro-[1,2,4]triazolo[4,3-a]pyrazin-7(8H)-yl)(4-(thiophen-2-yl)phenyl)methanone] | < 500 |
| O=C(c1ccc(-c2cccs2)cc1)N1CCn2c(nnc2-c2nc(-c3ccc(F)cc3F)no2)C1 [Compound 177, (3-(3-(2,4-difluorophenyl)-1,2,4-oxadiazol-5-yl)-5,6-dihydro-[1,2,4]triazolo[4,3-a]pyrazin-7(8H)-yl)(4-(thiophen-2-yl)phenyl)methanone] | < 500 |
| CC(C)C1c2nnc(-c3csc(-c4ccccc4)n3)n2CCN1C(=O)c1ccc(F)cc1 (stereo not shown) [Compound 43, (4-fluorophenyl)(8-isopropyl-3-(2-phenylthiazol-4-yl)-5,6-dihydro-[1,2,4]triazolo[4,3-a]pyrazin-7(8H)-yl)methanone] | 1000 to 5000 |
| Cc1nc(-c2ccccc2)sc1-c1nnc2n1CCN(C(=O)c1ccc(-c3ccccc3)cc1)C2C (stereo not shown) [Compound 72, [1,1′-biphenyl]-4-yl(8-methyl-3-(4-methyl-2-phenylthiazol-5-yl)-5,6-dihydro-[1,2,4]triazolo[4,3-a]pyrazin-7(8H)-yl)methanone] | < 500 |
| O=C(c1ccc(-c2cccs2)cc1)N1CCn2c(nnc2-c2ccccn2)C1 [Compound 21, (3-(pyridin-2-yl)-5,6-dihydro-[1,2,4]triazolo[4,3-a]pyrazin-7(8H)-yl)(4-(thiophen-2-yl)phenyl)methanone] | < 500 |
| Cc1sccc1-c1ccc(C(=O)N2CCn3c(-c4csc(-c5ccc(F)cc5)n4)nnc3[C@H]2C)cc1 [Compound 234, (R)-(3-(2-(4-fluorophenyl)thiazol-4-yl)-8-methyl-5,6-dihydro-[1,2,4]triazolo[4,3-a]pyrazin-7(8H)-yl)(4-(2-methylthiophen-3-yl)phenyl)methanone] | < 500 |
| CC(C)Cc1nc(-c2nnc3n2CCN(C(=O)c2ccc(-c4cccs4)cc2)C3)cs1 [Compound 256, (3-(2-isobutylthiazol-4-yl)-5,6-dihydro-[1,2,4]triazolo[4,3-a]pyrazin-7(8H)-yl)(4-(thiophen-2-yl)phenyl)methanone] | < 500 |
| O=C(c1ccc(-c2ccccc2)cc1)N1CCn2c(nnc2-c2csc(-c3ccccc3F)n2)C1 [Compound 182, [1,1′-biphenyl]-4-yl(3-(2-(2-fluorophenyl)thiazol-4-yl)-5,6-dihydro-[1,2,4]triazolo[4,3-a]pyrazin-7(8H)-yl)methanone] | < 500 |
| O=C(c1ccc(F)cc1)N1CCn2c(nnc2-c2csc(N3CCN(c4ccccc4)CC3)n2)C1 [Compound 34, (4-fluorophenyl)(3-(2-(4-phenylpiperazin-1-yl)thiazol-4-yl)-5,6-dihydro-[1,2,4]triazolo[4,3-a]pyrazin-7(8H)-yl)methanone] | < 500 |
| O=C(c1ccc(F)cc1)N1CCn2c(nnc2-c2nc(-c3ccccc3)no2)C1 [Compound 172, (4-fluorophenyl)(3-(3-phenyl-1,2,4-oxadiazol-5-yl)-5,6-dihydro-[1,2,4]triazolo[4,3-a]pyrazin-7(8H)-yl)methanone] | < 500 |
| Cc1cccc(-c2nnc3n2CCN(C(=O)c2ccc(-c4cccs4)cc2)C3C)n1 (stereo not shown) [Compound 287, (8-methyl-3-(6-methylpyridin-2-yl)-5,6-dihydro-[1,2,4]triazolo[4,3-a]pyrazin-7(8H)-yl)(4-(thiophen-2-yl)phenyl)methanone] | < 500 |

Further lines, results first:

| Ki [nM] | SMILES |
| --- | --- |
| < 500 | CC1c2nnc(-c3nc(-c4ccc(F)cc4)no3)n2CCN1C(=O)c1ccc(-c2cccs2)cc1 (stereo not shown) [Compound 209, (3-(3-(4-fluorophenyl)-1,2,4-oxadiazol-5-yl)-8-methyl-5,6-dihydro-[1,2,4]triazolo[4,3-a]pyrazin-7(8H)-yl)(4-(thiophen-2-yl)phenyl)methanone] |
| < 500 | O=C(c1ccc(-c2ccsc2)cc1)N1CCn2c(nnc2-c2csc(-c3ccccc3)n2)C1 [Compound 63, (3-(2-phenylthiazol-4-yl)-5,6-dihydro-[1,2,4]triazolo[4,3-a]pyrazin-7(8H)-yl)(4-(thiophen-3-yl)phenyl)methanone] |
| 500 to 1000 | Cn1cc(-c2nnc3n2CCN(C(=O)c2ccc(-c4cccs4)cc2)C3)nc1-c1ccccc1 [Compound 252, (3-(1-methyl-2-phenyl-1H-imidazol-4-yl)-5,6-dihydro-[1,2,4]triazolo[4,3-a]pyrazin-7(8H)-yl)(4-(thiophen-2-yl)phenyl)methanone] |
| < 500 | O=C(c1ccc(-c2cccs2)cc1)N1CCn2c(nnc2-c2nc(-c3ccccc3)no2)C1 [Compound 174, (3-(3-phenyl-1,2,4-oxadiazol-5-yl)-5,6-dihydro-[1,2,4]triazolo[4,3-a]pyrazin-7(8H)-yl)(4-(thiophen-2-yl)phenyl)methanone] |
| 500 to 1000 | O=C(c1ccc(F)cc1)N1CCn2c(nnc2-c2ccc3cccc(Cl)c3n2)C1 [Compound 23, (3-(8-chloroquinolin-2-yl)-5,6-dihydro-[1,2,4]triazolo[4,3-a]pyrazin-7(8H)-yl)(4-fluorophenyl)methanone] |
| < 500 | C[C@@H]1c2nnc(-c3csc(N4CCOCC4)n3)n2CCN1C(=O)c1ccc(-c2cccs2)cc1 [Compound 136, (R)-(8-methyl-3-(2-morpholinothiazol-4-yl)-5,6-dihydro-[1,2,4]triazolo[4,3-a]pyrazin-7(8H)-yl)(4-(thiophen-2-yl)phenyl)methanone] |
| 500 to 1000 | CC1Cn2c(nnc2-c2csc(-c3ccc(F)cc3)n2)CN1C(=O)c1ccc(-c2cccs2)cc1 (stereo not shown) [Compound 107, (3-(2-(4-fluorophenyl)thiazol-4-yl)-6-methyl-5,6-dihydro-[1,2,4]triazolo[4,3-a]pyrazin-7(8H)-yl)(4-(thiophen-2-yl)phenyl)methanone] |
| 1000 to 5000 | CC(C)c1nc(-c2nnc3n2CCN(C(=O)c2ccc(F)cc2)C3)cs1 [Compound 208, (4-fluorophenyl)(3-(2-isopropylthiazol-4-yl)-5,6-dihydro-[1,2,4]triazolo[4,3-a]pyrazin-7(8H)-yl)methanone] |
| < 500 | CC1c2nnc(-c3csc(N4CCOCC4)n3)n2CCN1C(=O)c1ccc(-c2ccc(F)cc2)cc1 (stereo not shown) [Compound 53, (4′-fluoro-[1,1′-biphenyl]-4-yl)(8-methyl-3-(2-morpholinothiazol-4-yl)-5,6-dihydro-[1,2,4]triazolo[4,3-a]pyrazin-7(8H)-yl)methanone] |
| < 500 | O=C(c1ccc(F)cc1)N1CCn2c(nnc2-c2csc(-c3ccc(N4CCCC4)cc3)n2)C1 [Compound 246, (4-fluorophenyl)(3-(2-(4-(pyrrolidin-1-yl)phenyl)thiazol-4-yl)-5,6-dihydro-[1,2,4]triazolo[4,3-a]pyrazin-7(8H)-yl)methanone] |
| < 500 | O=C(c1ccc(-c2cccs2)cc1)N1CCn2c(nnc2-c2csc(N3CCC(F)(F)CC3)n2)C1 [Compound 263, (3-(2-(4,4-difluoropiperidin-1-yl)thiazol-4-yl)-5,6-dihydro-[1,2,4]triazolo[4,3-a]pyrazin-7(8H)-yl)(4-(thiophen-2-yl)phenyl)methanone] |
| < 500 | C[C@@H]1c2nnc(-c3csc(-c4ccccc4)n3)n2CCN1C(=O)c1ccc(F)cc1 [Compound 45, (R)-(4-fluorophenyl)(8-methyl-3-(2-phenylthiazol-4-yl)-5,6-dihydro-[1,2,4]triazolo[4,3-a]pyrazin-7(8H)-yl)methanone] |
| < 500 | O=C(c1ccc(-c2ccccc2)nc1)N1CCn2c(nnc2-c2ccc3ccccc3n2)C1 [Compound 91, (6-phenylpyridin-3-yl)(3-(quinolin-2-yl)-5,6-dihydro-[1,2,4]triazolo[4,3-a]pyrazin-7(8H)-yl)methanone] |
